Data reported in patent publication US20030180893A1, “Biotransformation of biologically active compounds made of various classes of chemical substance by means of laccase and manganese peroxidase enzymes” (priority 2000, published 2003).

Assays:
[1] = test system: multiresistant S. aureus reference strain “Norddeutscher Stamm”; test: Agar diffusion test according to Burkhardt against multiresistant S. aureus “Norddeutscher Stamm”; format: cell-based; details: for Size of inhibition halo: starting materials, S. aureus “Nord. Stamm”; for Inhibition halo: S. aureus “Norddeutscher Stamm”
Experimental: (§1) Methods: An agar diffusion test according to Burkhardt was performed (Burkhardt, F. (Ed.): Mikrobiologische Diagnostik, Georg-Thieme-Verlag Stuttgart, N.Y., 1992, p. 724). The test substances are applied to Sensi-Disc test plates (Becton Dickinson Microbiology Systems, Cockeysville, USA) in graduated concentrations. For testing, Mueller-Hinton II agar was employed in Stacker Petri dishes (Becton Dickinson Microbiology Systems, Cockeysville, USA). S. aureus strain ATCC 6538 was selected as a test strain. The seeding rate of this test strain was selected in such a way that densely arranged, nut non-confluent individual colonies developed after from 16 to 20 h of incubation. After drying the inoculated nutrient substrates, a maximum of 6 test plates is placed onto the agar surface with slight pressing. After 18+2 h of incubation at 36° C., the inhibition halos are measured. For internal quality control, the method was checked with S. aureus ATCC 25923.
Methods: The examination was effected by an agar diffusion test according to the method described in Example 13. As a test germ, the multiresistant S. aureus reference strain “Norddeutscher Stamm” (Smith Kline Beecham) was employed.

[2] = test system: multiresistant coagulase-negative S. epidermidis strain 99847; test: Agar diffusion test according to Burkhardt against multiresistant S. epidermidis; format: cell-based
Experimental: as §1
Methods: The examination was effected by an agar diffusion test according to the method described in Example 13. As a test germ, the multiresistant coagulase-negative S. epidermidis strain 99847 isolated from patient material was employed.

[3] = test system: S. aureus strain ATCC 6538; test: Agar diffusion test according to Burkhardt against S. aureus ATCC 6538; format: cell-based
Experimental: as §1

[4] = Antimicrobial activity in the preparation examples; details: result line of the preparation example; no test germ named

Row | Structure (SMILES) | Size of inhibition halo ([1]; 0.05 mg/disc) [mm] | Size of inhibition halo ([1]; 0.25 mg/disc) [mm] | Size of inhibition halo ([2]; starting materials, 0.25 mg/disc) [mm] | Inhibition halo ([3]; 10 μg per test plate) [mm] | Inhibition halo ([3]; 50 μg per test plate) [mm] | Inhibition halo ([3]; 125 μg per test plate) [mm] | Inhibition halo ([3]; 250 μg per test plate) [mm] | Inhibition halo ([1]; 50 μg) [mm] | Inhibition halo ([1]; 125 μg) [mm] | Inhibition halo ([1]; 250 μg) [mm] | Antimicrobial activity of the coupling product (in words) [4] | Inhibition halo ([2]; 125 μg) [mm] | Inhibition halo ([2]; 250 μg) [mm] | Antimicrobial activity (in words) ([3]; summary of Table 1) | Inhibition halo ([1]; 10 μg) [mm] | Inhibition halo ([2]; 50 μg) [mm]
1 | O=C(NCCO)c1cc(O)ccc1O [2,5-Dihydroxy-N-(2-hydroxyethyl)benzamide, reference compound] | 14 | 22 | 22 |  |  |  |  |  |  |  |  |  |  |  |  | 
2 | CC1(C)SC2C(Nc3cc(O)c(C(=O)NCCO)cc3O)C(=O)N2C1C(=O)O (stereo not shown) [Example 1] |  |  |  | 12 | 18 | 22 | 24 | 16 | 18 | 20 | antimicrobially active |  |  |  |  | 
3 | CC1=C(C(=O)O)N2C(=O)C(Nc3cc(O)c(C(=O)NCCO)cc3O)C2SC1 (stereo not shown) [Example 3] |  |  |  |  | 18 | 22 | 24 | 20 | 22 | 24 | antimicrobially active | 24 | 20 |  |  | 
4 | CC1(C)SC2C(NC(=O)C(Nc3c(O)ccc(O)c3C(=O)NCCO)c3ccc(O)cc3)C(=O)N2C1C(=O)O (stereo not shown) [Example 4] |  |  |  | >30 | >30 | >30 | >30 | 18 | 22 | 24 | antimicrobially active | 28 | 30 | highest antimicrobial activity | 10 | 18
5 | CC1(C)SC2C(NC(=O)C(Nc3cc(O)c(C(=O)NCCO)cc3O)c3ccccc3)C(=O)N2C1C(=O)O (stereo not shown) [Example 5] |  |  |  |  |  |  |  |  |  |  | antimicrobially active |  |  |  |  | 
